Test results published in patent US20110152358A1, “Compositions and Methods for Diagnosis and Treatment of Pancreatic Ductal Cancer” (priority 2008, published 2011).
Entries after “also recorded” stand apart in the source; their conditions may differ.

How the values were obtained:
Format in all cases: cell-based, human
T3M4 cells [1] = assay: Matrigel cell invasion assay, shRNA infected T3M4 cells; details: 18 hours
Method: (§1) Cell invasion was measured as reported previously, with some modification (Rowland-Goldsmith, M. A. et al. 2001. Clin. Cancer Res. 7:2931-2940). Briefly, cells were suspended in 500 μL of serum-free medium (0.1% BSA) and placed onto the upper compartment of Matrigel-coated transwell chambers (8 μm pore sized, BioCoat Matrigel Invasion Chambers, BD Biosciences, San Jose, Calif.). The lower compartment was filled with 750 μL of medium containing serum free media in the absence or presence of the respective growth factors. After 18-20 hours, cells on the upper surface of the filter were carefully removed with a cotton swab and the membranes were fixed in methanol. The cells that had migrated through the membrane to the lower surface of the filter were stained with toluidine blue (Fisher Scientific, Fair Lawn, N.J.) and counted using a light microscope.

PANC-1 cells [2] = assay: Matrigel cell invasion assay, sham and 14-3-3σ overexpressing PANC-1 clones; details: 20 hours
Method: as §1

PANC-1 cells [3] = assay: cisplatinum induced apoptosis, immunoblot of cleaved PARP and cleaved caspase-3, PANC-1 clones; details: 10 μg/mL cisplatinum; 24 hours
Method: (§2) Sham or 14-3-3σ transfected PANC-1 cells were incubated for 24 hours in complete medium in the absence or presence of 10 μg/mL of cisplatinum. Scrambled or 14-3-3σ specific shRNA infected T3M4 cells were incubated in complete medium for 24 hours that was supplemented with 10 μg/mL cisplatinum for the initial 2 or 6 hours, or the entire 24 hours. Both floating and adherent cells were then collected and lysed in the buffer containing protease inhibitors, subjected to 10% SDS-PAGE, and immunoblotted with specific antibodies against cleaved Poly (ADP-ribose) Polymerase (PARP) and cleaved caspase-3 (Cell Signaling Technology, Danvers, Mass.).

T3M4 cells [4] = assay: cisplatinum induced apoptosis, immunoblot of cleaved PARP and cleaved caspase-3, shRNA infected T3M4 cells; details: cisplatinum 10 νg/mL for 2, 6, or 24 hours
Method: as §2

PANC-1 cells [5] = assay: MTT assay, survival of PANC-1 clones with cisplatinum; details: 10 μg/mL cisplatinum; 48 hours
Method: Sham-transfected PANC-1 cells and 14-3-3σ transfected clones (1×10^4) were plated in 96-well plates (six wells per sample). Cells were allowed to attach and grow for 48 hours in complete medium, and then treated with complete medium in the absence or presence of 10 μg/mL of cisplatinum (Sigma) for 48 hours, followed by the addition of MTT (3-[4,5-dimethylthiazol-2-yl]-2,5-diphenyltetrazolium bromide) (Sigma) at a final concentration 0.55 μg/mL. After an additional 4 hour incubation, absorbance at 570 nm was determined, with a reference of 650 nm, using a Emax precision microplate reader (Molecular devices, Sunnyvale, Calif.), as previously reported (Arnold, N. B. et al. 2004. Cancer Res. 64:3599-3606). It was previously determined that in pancreatic cancer cell lines the MTT assay correlates closely with cell growth as determined by cell counting and by assessing [^3H]thymidine incorporation (Raitano, A. B. and M. Korc. 1990. J. Biol. Chem. 265:10466-10472; Baldwin, R. L. and M. Korc. 1993. Growth Fact. 8:23-34).

PANC-1 cells [6] = assay: in vitro wound-healing (migration) assay, sham and 14-3-3σ overexpressing PANC-1 clones; details: EGF 1 nmol/L; serum free media; 24 hours
Method: (§3) To assess the motility properties, in vitro wound-healing assays or migration assays were performed. Cells were grown to confluence in 6-well tissue culture plates, serum starved overnight, and the monolayer was scratched with a 200 μL pipette tip generating two parallel wounds. The scratched wells were washed to remove cell debris and incubated for the next 24 hours in serum free media in the absence or presence 1 nmol/L EGF with or without the Src family kinase inhibitor PP2 (4-amino-5-(4-chlorophenyl)-7-(t-butyl)pyrazolo[3,4-d]pyrimidine) (Alexis, La Jolla, Calif.). To monitor cell migration, photographs were taken of each well at five marked locations under 40× magnification immediately after wounding (t0) and again 24 hours after wounding (t24), using an inverted microscope fitted with a digital camera (Nikon Diaphot 300, Nikon, Japan). The wound area of five matched pictures at t0 and t24 from each well were then measured using the ImageJ software (NIH, Bethedsa, Md.), and the percentage change in the wound area was calculated.

T3M4 cells [7] = assay: in vitro wound-healing (migration) assay, shRNA infected T3M4 cells; details: EGF 1 nmol/L; 24 hours; control shRNA, sh1 or sh2 infected cells; percentage change in wound area
Method: as §3

## COc1cc2ncnc(Nc3cccc(Br)c3)c2cc1OC [AG 1517, reference compound]
T3M4 cells [1]; EGF 1 nmol/L, AG 1517 1 μmol/L, PP2 10 μmol/L
  effect on EGF induced invasion in 14-3-3σ downregulated cells (sh2 infected): suppressed

## C[S+]([O-])c1ccc(-c2nc(-c3ccncc3)c(-c3ccc(F)cc3)[nH]2)cc1 (stereo not drawn) [SB203580, reference compound]
PANC-1 cells [2]; EGF 1 nmol/L, LY 294002 5 μmol/L, SB 203580 10 μmol/L, PP2 10 μmol/L, clone C1
  effect on EGF-mediated invasion in 14-3-3σ overexpressing clones: suppressed; also recorded: completely blocked

## N.N.[Cl][Pt][Cl] [cisplatinum]
PANC-1 cells [3]
  PARP cleavage in 14-3-3σ overexpressing clones compared with sham transfected cells: attenuated
  generation of cleaved caspase-3 in 14-3-3σ overexpressing clones compared with sham transfected cells: markedly decreased
T3M4 cells [4]
  apoptosis (PARP cleavage, caspase-3 activation) in 14-3-3σ silenced cells compared to non-silenced cells: increased apoptosis
PANC-1 cells [5]
  survival of 14-3-3σ overexpressing clones compared with Sham (MTT): significant (p<0.01) increase

## EGF: EGF growth factor, ligand of the EGF receptor, added at 1 nmol/L (NSDSECPLSHDGYCLHDGVCMYIEALDKYACNCVVGYIGERCQYRDLKWWELR; UniProt P01133 971-1023, looked up)
PANC-1 cells [6]
  motility of 14-3-3σ overexpressing cells: did not cause an additional increase in motility
  motility of sham-transfected cells: slight but significant increase
T3M4 cells [7]
  EGF stimulated motility: about 50%
PANC-1 cells [2]; EGF 1 nmol/L
  invasion of sham transfected cells: not statistically significant
PANC-1 cells [2]; EGF 1 nmol/L, clones C1 and C7
  invasion of 14-3-3σ overexpressing clones: markedly enhanced
T3M4 cells [1]; EGF 1 nmol/L
  invasion in 14-3-3σ downregulated cells (sh2 infected) compared to control shRNA infected cells: marked increase

## IGF-1: IGF-1 growth factor used as chemoattractant at 1 nmol/L
PANC-1 cells [2]; IGF-1 1 nmol/L
  invasion of PANC-1 clones overexpressing 14-3-3σ compared to sham cells: significantly increased
T3M4 cells [1]; IGF-1 1 nmol/L, non-silenced T3M4
  IGF-1-mediated invasion in presence of endogenously high levels of 14-3-3σ: robust
T3M4 cells [1]; IGF-1 1 nmol/L, sh1 or sh2 infected
  IGF-1 effect on invasion in T3M4 cells in which 14-3-3σ was silenced: markedly attenuated; also recorded: completely suppressed
